Experimental data: the NIST ThermoML archive (doi:10.1021/je400405m)

Test: wn = mass fraction of the nth substance listed
Conditions: w1 = 0.0516; for surface tension liquid-gas: Maximal bubble pressure; for viscosity / mass density: 101 kPa, Liquid; for viscosity: Capillary tube (Ostwald / Ubbelohde) method; for mass density: Pycnometric method

C1CNCCN1 [piperazine] + O
Conditions | mass density [kg/m3] | surface tension liquid-gas [mN/m] | viscosity [mPa·s]
303.15 K | 998.03 | 68.55 | 0.948
313.15 K | 994.71 | 66.97 | 0.75
323.15 K | 990.08 | 65.1 | 0.616
